Reference: US20080280879A1, “SUBSTITUTED HETEROCYCLIC DERIVATIVES AND THEIR PHARMACEUTICAL USE AND COMPOSITIONS” (priority 2007, published 2008)
Converted amounts (≈) assume the structure as drawn.

Legend:
Format in all cases: cell-based, Staphylococcus aureus
Staph aureus 1095 MRSA = test: MIC, microtiter broth dilution (CLSI M7-A7), Assay 1, Table 12 column A, no serum; conditions: Assay 1, no serum; for MIC: Staphylococcus aureus, MRSA
Procedure: (§1) The assays described herein include a panel of bacterial isolates of Staphylococcus aureus. Assay 1 comprises the strains noted in Columns A through E, and Assay 2 comprises the strains noted in Columns F through H. The assays are performed in microtiter trays according to Methods for Dilution Antimicrobial Susceptibility Tests for Bacteria that Grow Aerobically; Approved Standard-7th edition (M7-A7) and interpreted according to the Performance Standards for Antimicrobial Susceptibility Testing; 16th Informational Supplement (M100-S16) published by Clinical Laboratory Standards Institute (CLSI). The antibacterial activity is presented in the form of a minimum inhibitory concentration (MIC) value in μg/ml format. The MIC value represents the lowest concentration of drug measured which prevented macroscopically visible growth under the conditions and specific doses tested. The compounds were initially dissolved in DMSO as 30 mM stocks and diluted accordingly to adjust to a concentration of 10 mg/ml or the compounds were dissolved in DMSO at a concentration of 10 mg/ml. For assessment of activity in the presence of human serum, S. aureus 1146 and S. aureus 1031 were inoculated into Mueller-Hinton Broth with 50% pooled inactivated human serum. In some cases, compounds were tested more than once in a particular assay. Where noted, the MIC value shown in Table 12 represents the geometric mean of the data from multiple runs.
(§2) It should be understood that the data in columns A-H represents MIC data in μg/ml and the notation “<=” means ‘less than or equal to’.

Staph aureus 1146 [1] = test: MIC, microtiter broth dilution (CLSI M7-A7), Assay 1, Table 12 column B, no serum; conditions: for MIC: Staphylococcus aureus, 1146, Staph aureus 1146, Assay 1, no serum; for MIC, column B: Staph aureus 1146, Assay 1, no serum
Procedure: as §1, §2

Staph aureus 1146 [2] = test: MIC in Mueller-Hinton Broth with 50% pooled inactivated human serum, Assay 1, Table 12; conditions: for MIC: Staphylococcus aureus, 1146, Staph aureus 1146, Assay 1, 50% human serum, read-out: MIC, column C; for MIC, column C: Staph aureus 1146, Assay 1, 50% human serum
Procedure: as §1, §2

Staph aureus 2811 = test: MIC, microtiter broth dilution (CLSI M7-A7), Assay 1, Table 12 column D, no serum; conditions: for MIC: Staphylococcus aureus, 2811, Staph aureus 2811, Assay 1, no serum; for MIC, column D: Staph aureus 2811, Assay 1, no serum
Procedure: as §1, §2

Staph aureus 2812 = test: MIC, microtiter broth dilution (CLSI M7-A7), Assay 1, Table 12 column E, no serum; conditions: for MIC: Staphylococcus aureus, 2812, Staph aureus 2812, Assay 1, no serum; for MIC, column E: Staph aureus 2812, Assay 1, no serum
Procedure: as §1, §2

Compound	MIC (Staph aureus 1095 MRSA) [µg/mL]	MIC (Staph aureus 1146 [1]) [µg/mL]	MIC (Staph aureus 1146 [2]) [µg/mL]	MIC (Staph aureus 2811) [µg/mL]	MIC (Staph aureus 2812) [µg/mL]	MIC, column B (Staph aureus 1146 [1])	MIC, column C (Staph aureus 1146 [2]) [µg/mL]	MIC, column D (Staph aureus 2811)	MIC, column E (Staph aureus 2812)	MIC, column A (Staph aureus 1095 MRSA)
COc1ccc2nccc(C(O)CC[C@@H]3CCN(C4CC(c5cc(C)sn5)C4)C[C@@H]3C(=O)O)c2c1 (stereo partly drawn) [Example 22, (3R,4R)-4-[3-hydroxy-3-(6-methoxyquinolin-4-yl)propyl]-1-[3-(5-methylisothiazol-3-yl)cyclobutyl] piperidine-3-carboxylic acid]	4 (≈ 8.07 µM)	1 (≈ 2.02 µM)	8 (≈ 16.1 µM)	1 (≈ 2.02 µM)	2 (≈ 4.04 µM)	–	–	–	–	–
COc1ccc2ncc(Cl)c(C(O)CC[C@@H]3CCN(C4CC(c5cc(F)ccc5F)C4)C[C@@H]3C(=O)O)c2c1 (stereo partly drawn) [Example 204, (3R,4R)-4-[3-(3-chloro-6-methoxyquinolin-4-yl)-3-hydroxypropyl]-1-[3-(2,5-difluorophenyl)cyclobutyl]piperidine-3-carboxylic acid]	–	–	–	–	–	0.125 µg/mL (≈ 0.229 µM)	4.00 (≈ 7.34 µM)	0.125 µg/mL (≈ 0.229 µM)	0.250 µg/mL (≈ 0.459 µM)	0.250 µg/mL (≈ 0.459 µM)
COc1ccc2nccc([C@@H](O)CC[C@@H]3CCN(C4CC(c5cccc(F)c5)C4)C[C@@H]3C(=O)O)c2c1 (stereo partly drawn) [Example 92, (3R,4R)-1-[3-(3-fluorophenyl)cyclobutyl]-4-[(3S)-3-hydroxy-3-(6-methoxyquinolin-4-yl)propyl]piperidine-3-carboxylic acid]	0.125 (≈ 0.254 µM)	≤ 0.0625	0.5 (≈ 1.02 µM)	≤ 0.0625	≤ 0.0625	–	–	–	–	–
COc1ccc2ncc(F)c([C@@H](O)CC[C@@H]3CCN(C4CC(c5cc(F)cc(F)c5)C4)C[C@@H]3C(=O)O)c2c1 (stereo partly drawn) [Example 221, (3R,4R)-1-[3-(3,5-difluorophenyl)cyclobutyl]-4-[(3S)-3-(3-fluoro-6-methoxyquinolin-4-yl)-3-hydroxypropyl] piperidine-3-carboxylic acid]	1 (≈ 1.89 µM)	0.25 (≈ 0.473 µM)	4 (≈ 7.57 µM)	0.25 (≈ 0.473 µM)	0.25 (≈ 0.473 µM)	–	–	–	–	–
COc1ccc2nccc(C(O)CC[C@@H]3CCN(C4CC(c5ccccc5)C4C)C[C@@H]3C(=O)O)c2c1 (stereo partly drawn) [Example 43, (3R,4R)-4-[3-hydroxy-3-(6-methoxyquinolin-4-yl)propyl]-1-(2-methyl-3-phenylcyclobutyl)piperidine-3-carboxylic acid]	0.25 (≈ 0.512 µM)	≤ 0.0625	0.5 (≈ 1.02 µM)	≤ 0.0625	≤ 0.0625	–	–	–	–	–
CCc1noc(C2CC(N3CC[C@@H](CCC(O)c4ccnc5ccc(OC)cc45)[C@@H](C(=O)O)C3)C2)n1 (stereo partly drawn) [Example 162, (3R,4R)-1-[3-(3-ethyl-1,2,4-oxadiazol-5-yl)cyclobutyl]-4-[3-hydroxy-3-(6-methoxyquinolin-4-yl)propyl]piperidine-3-carboxylic acid]	64 (≈ 129 µM)	64 (≈ 129 µM)	> 64	32 (≈ 64.7 µM)	64 (≈ 129 µM)	–	–	–	–	–
COc1ccc2nccc(C(O)CC[C@@H]3CCN(C4CC(Cc5ccccc5)C4)C[C@@H]3C(=O)O)c2c1 (stereo partly drawn) [Example 103, (3R,4R)-1-(3-benzylcyclobutyl)-4-[3-hydroxy-3-(6-methoxyquinolin-4-yl)propyl]piperidine-3-carboxylic acid]	0.5 (≈ 1.02 µM)	0.25 (≈ 0.512 µM)	4 (≈ 8.19 µM)	0.25 (≈ 0.512 µM)	0.25 (≈ 0.512 µM)	–	–	–	–	–
COc1ccc2nccc([C@@H](O)CNC3CCN([C@H]4C[C@H](c5ccccc5)C4)CC3C(=O)O)c2c1 (stereo partly drawn) [Example 122, 4-{[(2R)-2-hydroxy-2-(6-methoxyquinolin-4-yl)ethyl]amino}-1-(trans-3-phenylcyclobutyl)piperidine-3-carboxylic acid]	4 (≈ 8.41 µM)	4 (≈ 8.41 µM)	16 (≈ 33.6 µM)	1 (≈ 2.1 µM)	2 (≈ 4.21 µM)	–	–	–	–	–
COc1ccc2nccc(C(O)CC[C@@H]3CCN(C4CC(c5cccc(F)c5F)C4)C[C@@H]3C(=O)O)c2c1 (stereo partly drawn) [Example 58, (3R,4R)-1-[3-(2,3-difluorophenyl)cyclobutyl]-4-[3-hydroxy-3-(6-methoxyquinolin-4-yl)propyl] piperidine-3-carboxylic acid]	–	–	–	–	–	–	2 (≈ 3.92 µM)	–	–	–
COc1ccc2nccc([C@@H](O)CC[C@@H]3CCN(C4CC(c5ccc(-c6ccccc6)cc5)C4)C[C@@H]3C(=O)O)c2c1 (stereo partly drawn) [Example 70, (3R,4R)-1-(3-biphenyl-4-ylcyclobutyl)-4-[(3S)-3-hydroxy-3-(6-methoxyquinolin-4-yl)propyl] piperidine-3-carboxylic acid]	–	–	–	–	–	–	–	–	–	>64 µg/mL

More lines, now with the values ahead:

MIC (Staph aureus 1095 MRSA) [µg/mL]	MIC (Staph aureus 1146 [1]) [µg/mL]	MIC (Staph aureus 1146 [2]) [µg/mL]	MIC (Staph aureus 2811) [µg/mL]	MIC (Staph aureus 2812) [µg/mL]	MIC, column B (Staph aureus 1146 [1])	MIC, column C (Staph aureus 1146 [2]) [µg/mL]	MIC, column D (Staph aureus 2811)	MIC, column E (Staph aureus 2812)	MIC, column A (Staph aureus 1095 MRSA)	Compound
< 0.0625	< 0.0625	64 (≈ 124 µM)	< 0.0625	< 0.0625	–	–	–	–	–	COc1ccc2ncc(Cl)c(CCCC3(C(=O)O)CCN(C4CC(c5cc(F)ccc5F)C4)C3)c2c1 (stereo not shown) [Example 207, 3-[3-(3-chloro-6-methoxyquinolin-4-yl)propyl]-1-[3-(2,5-difluorophenyl)cyclobutyl] pyrrolidine-3-carboxylic acid]
0.25 (≈ 0.459 µM)	≤ 0.0625	4 (≈ 7.34 µM)	≤ 0.0625	≤ 0.0625	–	–	–	–	–	COc1ccc2nccc([C@@H](O)CC[C@@H]3CCN(C4CC(c5c(F)ccc(Cl)c5F)C4)C[C@@H]3C(=O)O)c2c1 (stereo partly drawn) [Example 68, (3R,4R)-1-[3-(3-chloro-2,6-difluorophenyl)cyclobutyl]-4-[(3S)-3-hydroxy-3-(6-methoxyquinolin-4-yl)propyl]piperidine-3-carboxylic acid]
4 (≈ 7.96 µM)	1 (≈ 1.99 µM)	64 (≈ 127 µM)	1 (≈ 1.99 µM)	1 (≈ 1.99 µM)	–	–	–	–	–	COc1ccc2nccc(C(O)CC[C@@H]3CCN(C4CC(c5c(C)cccc5C)C4)C[C@@H]3C(=O)O)c2c1 (stereo partly drawn) [Example 35, (3R,4R)-1-[3-(2,6-dimethylphenyl)cyclobutyl]-4-[3-hydroxy-3-(6-methoxyquinolin-4-yl)propyl] piperidine-3-carboxylic acid]
1 (≈ 2.05 µM)	–	–	–	–	0.5 µg/mL (≈ 1.02 µM)	16 (≈ 32.7 µM)	0.5 µg/mL (≈ 1.02 µM)	0.5 µg/mL (≈ 1.02 µM)	–	COc1ccc2nccc(C(CC[C@@H]3CCN(C4CC(c5ccccc5)C4)C[C@@H]3C(=O)O)OC)c2c1 (stereo partly drawn) [Example 10, (3R,4R)-4-[3-methoxy-3-(6-methoxyquinolin-4-yl)propyl]-1-(3-phenylcyclobutyl)piperidine-3-carboxylic acid]
–	–	–	–	–	<=.0625 μg/ml	4 (≈ 8.39 µM)	<=.0625 μg/ml	<=.0625 μg/ml	<=.0625 μg/ml	COc1ccc2nccc(C(F)CC[C@@H]3CCN(C4CC(c5ccccc5)C4)C[C@@H]3C(=O)O)c2c1 (stereo partly drawn) [Example 134, (3R,4R)-4-(3-fluoro-3-(6-methoxyquinolin-4-yl)propyl)-1-(3-phenylcyclobutyl)piperidine-3-carboxylic acid]
–	–	–	–	–	2.00 µg/mL (≈ 4.09 µM)	32.0 (≈ 65.5 µM)	2.00 µg/mL (≈ 4.09 µM)	4.00 µg/mL (≈ 8.19 µM)	8.00 µg/mL (≈ 16.4 µM)	COc1ccc2nccc(C(O)CC[C@@H]3CCN(CC4CC(c5ccccc5)C4)C[C@@H]3C(=O)O)c2c1 (stereo partly drawn) [Example 178, (3R,4R)-4-[3-hydroxy-3-(6-methoxyquinolin-4-yl)propyl]-1-[(3-phenylcyclobutyl)methyl]piperidine-3-carboxylic acid]
4 (≈ 7.37 µM)	8 (≈ 14.7 µM)	> 64	4 (≈ 7.37 µM)	8 (≈ 14.7 µM)	–	–	–	–	–	COc1ccc2nccc(C(O)CC[C@@H]3CCN(C4CC(c5ccc(C(F)(F)F)cc5)C4)C[C@@H]3C(=O)O)c2c1 (stereo partly drawn) [Example 30, (3R,4R)-4-[3-hydroxy-3-(6-methoxyquinolin-4-yl)propyl]-1-{3-[4-(trifluoromethyl)phenyl]cyclobutyl} piperidine-3-carboxylic acid]
32 (≈ 69.5 µM)	16 (≈ 34.7 µM)	> 64	8 (≈ 17.4 µM)	16 (≈ 34.7 µM)	–	–	–	–	–	O=C(O)[C@H]1CN(C2CC(c3ccccc3)C2)CC[C@H]1CCC(O)c1ccnc2ccc(O)cc12 (stereo partly drawn) [Example 142, (3R,4R)-4-[3-hydroxy-3-(6-hydroxyquinolin-4-yl)propyl]-1-(3-phenylcyclobutyl)piperidine-3-carboxylic acid]
–	≤ 0.0625	2 (≈ 4.2 µM)	0.125 (≈ 0.262 µM)	≤ 0.0625	–	–	–	–	0.25 µg/mL (≈ 0.525 µM)	COc1ccc2nccc(C(F)CC[C@@H]3CCN(C4CC(c5ccccc5)C4)C[C@@H]3C(=O)O)c2c1 (stereo partly drawn) [Example 133, (3R,4R)-4-(3-fluoro-3-(6-methoxyquinolin-4-yl)propyl)-1-(3-phenylcyclobutyl)piperidine-3-carboxylic acid]
–	–	32 (≈ 57.1 µM)	–	–	–	–	–	–	–	COc1ccc2ncc(F)c(C(O)CC[C@@H]3CCN(C4CC(Sc5cc(F)ccc5F)C4)C[C@@H]3C(=O)O)c2c1 (stereo partly drawn) [Example 229, (3R,4R)-1-[3-(2,5-Difluoro-phenylsulfanyl)-cyclobutyl]-4-[(S)-3-(3-fluoro-6-methoxy-quinolin-4-yl)-3-hydroxy-propyl]-piperidine-3-carboxylic acid]
